Reference: the RepoRT retention time repository (doi:10.1016/j.jhazmat.2019.121712)

Assay: Thermo Scientific Acclaim RSLC 120 C18, 100 × 2.1 mm, 2.2 µm, 30 °C; A: 90% water + 10% methanol + 0.01% formic acid + 5 mM ammonium formate; B: methanol + 0.01% formic acid + 5 mM ammonium formate; gradient (min/%B) 0.1/1 3/39 14/99.9 16/99.9
Settings: stereoisomer not certain

Compound | LC retention time
COC(=O)C(NC(=O)c1nn(CC2CCCCC2)c2ccccc12)C(C)C (stereo not drawn) | 12.4 min
CNC(=O)Oc1cc(C)c(S(C)=O)c(C)c1 (stereo not drawn) | 4.86 min
CCCCCn1cc(C(=O)Oc2cccc3cccnc23)c2ccccc21 | 11.9 min
N=C(N)N1CCc2ccccc2C1 | 4.39 min
CCOc1ccc(NC(=O)CC(C)O)cc1 (stereo not drawn) | 6.27 min
CNC(C)C(=O)c1ccc(OC)cc1 (stereo not drawn) | 4.16 min
O=C(O)C(c1ccccc1)C1CCCCN1 (stereo not drawn) | 4.61 min
CN1CCc2cccc3c2C1Cc1ccc(O)c(O)c1-3 (stereo not drawn) | 4.28 min
CCCCn1c(O)c(C(=O)c2cccc3ccccc23)c2ccccc21 | 13.5 min
CN1CCC23c4c5ccc(O)c4OC2C(=O)CCC3C1C5 (stereo not drawn) | 2.91 min
CCCc1ccc(C(=O)c2cn(CCC)c3ccccc23)c2ccccc12 | 12.7 min
COc1ccc(CC(C)N)c(OC)c1OC (stereo not drawn) | 4.16 min
CSc1nc(N)nc(NC(C)(C)C)n1 | 8.43 min
CCCCC(CC)COC(=O)c1ccccc1C(=O)OCC(CC)CCCC (stereo not drawn) | 15 min
CC1CC(C)C(=O)C(C(O)CC2CC(=O)NC(=O)C2)C1 (stereo not drawn) | 5.99 min
Nc1ccc([N+](=O)[O-])cc1C(=O)c1ccccc1 | 8.99 min
CN1CCCCC(n2cc(C(=O)c3cccc4ccccc34)c3ccccc32)C1 (stereo not drawn) | 8.61 min
C=C1CC23CC1(O)CCC2C12C=CC(O)C(C)(C(=O)O1)C2C3C(=O)O (stereo not drawn) | 4.91 min
CCCCCn1cc(C(=O)c2ccccc2OC)c2ccccc21 | 11.2 min
N#Cc1ccc(C(c2ccc(C#N)cc2)n2cncn2)cc1 | 6.33 min
CC(O)CCCn1cc(C(=O)c2cccc3ccccc23)c2ccccc21 (stereo not drawn) | 10.1 min
CN(CCO)CC(O)Cn1cnc2c1c(=O)n(C)c(=O)n2C (stereo not drawn) | 2.99 min
CNC(C)Cc1ccccc1OC (stereo not drawn) | 4.69 min

Compound | LC retention time
CN1C2CCC1C(C(=O)O)C(OC(=O)c1ccccc1)C2 (stereo not drawn) | 4.68 min
CCc1cc2cc(OC)c(OC)cc2c(Cc2ccccc2)n1 | 8.29 min
CN(C)CCOC(c1ccccc1)c1ccccc1 | 6.63 min
CN(C)CCc1c[nH]c2ccc(Cn3cncn3)cc12 | 3.49 min
Nc1nc2c(ncn2CCC(CO)CO)c(=O)[nH]1 | 2.98 min
CCOP(=S)(OCC)Oc1ccc(S(C)(=O)=O)cc1 | 8.48 min
CCC(C(N)=O)N1CCCC1=O (stereo not drawn) | 3.74 min
CCCSC(=O)N(CCC)CCC | 11.5 min
Cc1cc(C)nc(Nc2ccccc2)n1 | 9.44 min
CNCCC=C1c2ccccc2COc2ccccc21 | 7.03 min
C=CCC(C(=O)NC(N)=O)C(C)C (stereo not drawn) | 6.94 min
CCCCCC(C)n1c(C)c(C(=O)c2cccc3ccccc23)c2ccccc21 (stereo not drawn) | 13 min
COc1ccc(CCN(C)CCCC(C#N)(c2cc(OC)c(OC)c(OC)c2)C(C)C)cc1OC (stereo not drawn) | 7.19 min
Cc1nnc2n1-c1ccc([N+](=O)[O-])cc1C(c1ccccc1)=NC2 | 6.91 min
CC(=O)OC1CCC2C3CCC4CC(=O)C=C(C)C4(C)C3CCC12C (stereo not drawn) | 12.5 min
COc1ccc2c(c1)N(CC(C)CN(C)C)c1ccccc1S2=O (stereo not drawn) | 5.98 min
CN1CCN(CCC=C2c3ccccc3Sc3ccc(S(=O)(=O)N(C)C)cc32)CC1 | 8.38 min
CCC(N)Cc1c[nH]c2ccccc12 (stereo not drawn) | 5.04 min
CCCCOC(=O)c1ccccc1C(=O)OCCCC | 12 min
OCc1cc(C(O)CNCCCCCCOCCCCc2ccccc2)ccc1O (stereo not drawn) | 8.83 min
CCOC(=O)C=C1SC(N2CCCCC2)C(=O)N1CC (stereo not drawn) | 9.85 min
COc1cccc(C2(O)CCCCC2CN)c1 (stereo not drawn) | 5.19 min
N#CC1CCCN1C(=O)CNC12CC3CC(CC(O)(C3)C1)C2 (stereo not drawn) | 3.26 min

Compound | LC retention time
CC(C)(C)Nc1nc(N)[nH]c(=O)n1 | 3.99 min
COC(=O)c1ccc(C)cc1C1=NC(C)(C(C)C)C(=O)N1 (stereo not drawn) | 7.16 min
CC(NC(=O)C(N)CC(=O)O)C(=O)NC1C(C)(C)SC1(C)C (stereo not drawn) | 6.09 min
Nc1ccc(S(=O)(=O)Nc2ccccn2)cc1 | 3.8 min
CC(C)(C)NCC(O)COc1ccccc1C1CCCC1 (stereo not drawn) | 9.01 min
Cc1nn(C)c(Oc2ccccc2)c1C=NOCc1ccc(C(=O)OC(C)(C)C)cc1 | 13.2 min
Cc1ccc(-c2nc3ccc(C)cn3c2CC(=O)N(C)C)cc1 | 5.8 min
CC(C)(C)c1ccc(C(=O)CCCN2CCC(OC(c3ccccc3)c3ccccc3)CC2)cc1 | 10.9 min
CCCCCCCCCc1ccc(OCCO)cc1 | 13.2 min
CCC(Cc1ccc2c(c1)OCO2)NC (stereo not drawn) | 4.66 min
O=[N+]([O-])c1cncn1CCN1CCOCC1 | 4.09 min
Nc1cc(-c2ccncc2)c[nH]c1=O | 2.88 min
CCOC(=O)C1(c2ccccc2)CCC=CC1NC (stereo not drawn) | 5.28 min
OC(CCN1CCCCC1)(c1ccccc1)C1CC2C=CC1C2 (stereo not drawn) | 7.63 min
COc1cc(NC(C)CCCN)c2ncccc2c1 (stereo not drawn) | 6.82 min
CC(CN1c2ccccc2Sc2cccnc21)N(C)C (stereo not drawn) | 6.47 min
COC(=O)c1ccccc1S(=O)(=O)NC(=O)Nc1nc(C)nc(OC)n1 | 6.31 min
Cc1ccsc1C=CC1=NCCCN1C | 4.36 min
Nc1ccc(S(=O)(=O)NC(=O)c2ccccc2)cc1 | 4.72 min
CC(=O)c1ccc2c(c1)N(CCCN(C)C)c1ccccc1S2 | 7.47 min
Nc1ccc(S(=O)(=O)Nc2nccs2)cc1 | 3.63 min
O=C(c1cccc2ccccc12)c1cn(CCN2CCOCC2)c2ccccc12 | 9.88 min
COc1ccccc1CC(=O)c1cn(CCC2CCCCC2)c2ccccc12 | 13 min

Compound | LC retention time
COc1ccc2[nH]cc(CC(C)N)c2c1 (stereo not drawn) | 4.36 min
CN(C)CC1CCCCC1(O)c1cccc(O)c1 (stereo not drawn) | 4.06 min
CCC(CC)COC(C(=O)OCCN(C)C)(c1ccccc1)c1ccccc1 | 11.6 min
CCOP(=S)(OCC)SCS(=O)C(C)(C)C (stereo not drawn) | 9 min
CCN(CC)CCOC(=O)C(c1ccccc1)C1CCCCC1 (stereo not drawn) | 9.19 min
CN1CCOC(c2ccccc2)c2ccccc2C1 (stereo not drawn) | 5.67 min
Cc1cccc(N(C)C(=S)Oc2ccc3ccccc3c2)c1 | 12.2 min
CCC1C2CC3C4N(C)c5ccccc5C45CC(C2C5O)N3C1O (stereo not drawn) | 5.19 min
COc1cc(OC)nc(Oc2cccc(Oc3nc(OC)cc(OC)n3)c2C(=O)O)n1 | 8.86 min
CCCc1nn(C)c2c(=O)[nH]c(-c3cc(S(=O)(=O)N4CCN(CC)CC4)ccc3OCC)nc12 | 7.84 min
COCC(C)N(C(=O)CS(=O)(=O)O)c1c(C)csc1C (stereo not drawn) | 6.28 min
COC(=O)Nc1nc2ccc(Sc3ccccc3)cc2[nH]1 | 10.3 min
CCCCCn1cc(C(=O)Nc2cccc3ccccc23)c2ccccc21 | 11.7 min
COP(=O)(OC)Oc1ccc(SC)c(C)c1 | 8.82 min
CCCCCCC(C)(C)c1ccc(C2CCCC(O)C2)c(O)c1 (stereo not drawn) | 13.1 min
CCCCCn1cc(C(=O)c2cccc3ccccc23)c2c(O)cccc21 | 12.5 min
CNC(=O)Oc1cc(C)c(N(C)C)c(C)c1 | 9.3 min
CC[N+]([O-])(CC)CC(=O)Nc1c(C)cccc1C | 5.34 min
COC(=O)C1=COC(C)C2CN3CCc4c([nH]c5ccccc45)C3CC12 (stereo not drawn) | 6.66 min
COc1cc(OC)nc(NC(=O)NS(=O)(=O)N(C)S(C)(=O)=O)n1 | 6.77 min
CC12CCC3C4CCC(=O)C=C4CCC3C1CCC2OC(=O)CCc1ccccc1 (stereo not drawn) | 13.6 min
CN1CCN2c3ncc(O)cc3Cc3ccccc3C2C1 (stereo not drawn) | 4.54 min
CNC(C)Cc1ccccc1 (stereo not drawn) | 4.21 min

Compound | LC retention time
CCCCCn1cc(C(=O)c2cccc3ccccc23)c2cccc(O)c21 | 11.8 min
CC(C)N(C(=O)CS(=O)(=O)O)c1ccccc1 | 5.46 min
CCCC(C(=O)c1ccccc1)N1CCCC1 (stereo not drawn) | 5.08 min
c1ccc(C2(N3CCCCC3)CCCCC2)cc1 | 5.74 min
CN1C2CCCC1CC(NC(=O)c1nn(C)c3ccccc13)C2 (stereo not drawn) | 4.99 min
c1coc(-c2nc3ccccc3[nH]2)c1 | 6.48 min
Cc1ccc2c(-c3ccccc3)nc(=O)n(C(C)C)c2c1 | 9.61 min
CC12CCC3c4ccc(O)c(O)c4CCC3C1CCC2=O (stereo not drawn) | 8.69 min
CCOP(=O)(OCC)Oc1cc(C)nc(C(C)C)n1 | 8.65 min
O=C(O)CCCCn1cc(C(=O)c2cccc3ccccc23)c2ccccc21 | 9.71 min
CSc1nc(NC2CC2)nc(NC(C)(C)C)n1 | 10.5 min
CCN(CC)CCOCCOC(=O)C1(c2ccccc2)CCCC1 | 7.87 min
CCSC(=O)N(CC(C)C)CC(C)C | 12 min
Cc1cc(C)c(C2=C(OC(=O)CC(C)(C)C)C3(CCCC3)OC2=O)c(C)c1 | 12.8 min
CC12CCC(=O)C=C1CCC1C2C(O)CC2(C)C1CCC2(O)C(=O)CO (stereo not drawn) | 7.84 min
CCOc1ccc(NC(=O)OC(C)C)cc1OCC | 9.04 min
CC(=O)Oc1c(C)cc(OCC(O)CNC(C)C)c(C)c1C (stereo not drawn) | 6.28 min
COc1ccc2cc(CCC(C)=O)ccc2c1 | 9.82 min
CCCCCn1nc(C(=O)NC(C(N)=O)C(C)C)c2ccccc21 (stereo not drawn) | 10.5 min
Cc1ccc(C(=O)c2cn(CCCCCO)c3ccccc23)c2ccccc12 | 10.6 min
O=C1C(CCS(=O)c2ccccc2)C(=O)N(c2ccccc2)N1c1ccccc1 (stereo not drawn) | 7.94 min
